According to ChEMBL document CHEMBL5321222, “N(14)-substituted evodiamine derivatives as dual topoisomerase 1/tubulin-Inhibiting anti-gastrointestinal tumor agents” (Eur J Med Chem, 2023):
The source made the active and inactive calls. The rule behind the calls is not given here.

Tests used:
[1] = tested on: MGC-803; assay: Inhibition of colony formation in human MGC-803 cells at 90 nM incubated for 7 days by crystal violet staining based assay; type: functional, cell-based; details: time 7.0 day
[2] = tested on: RKO; assay: Induction of apoptosis in human RKO cells assessed as late apoptotic cells at 0.2 uM incubated for 24 hrs by propidium iodide and Annexin V/FITC staining based flow cytometry assay (reference value: 0.50%); type: functional
[3] = tested on: RKO; assay: Induction of cell cycle arrest in human RKO cells assessed as accumulation of cells at G2/M phase at 0.05 to 0.2 uM incubated for 24 hrs by propidium iodide staining based flow cytometry analysis; type: functional; details: dose 0.05-0.2 µM
[4] = tested on: RKO; assay: Induction of apoptosis in human RKO cells assessed as early apoptotic cells at 0.2 uM incubated for 24 hrs by propidium iodide and Annexin V/FITC staining based flow cytometry assay (reference value: 0.16%); type: functional
[5] = tested on: MGC-803; assay: Inhibition of cell migration in human MGC-803 cells assessed as reduction in tumor wound healing incubated for 24 hrs by microscopic analysis; type: functional, cell-based; details: dose 10-90 nM
[6] = tested on: RKO; assay: Inhibition of colony formation in human RKO cells at 90 nM incubated for 7 days by crystal violet staining based assay; type: functional, cell-based; details: time 7.0 day
[7] = tested on: MGC-803; assay: Inhibition of colony formation in human MGC-803 cells incubated for 7 days by crystal violet staining based assay; type: functional, cell-based; details: dose 10-90 nM, time 7.0 day
[8] = tested on: MGC-803; assay: Induction of apoptosis in human MGC-803 cells assessed as early apoptotic cells at 0.05 uM incubated for 24 hrs by propidium iodide and Annexin V/FITC staining based flow cytometry assay (reference value: 1.85%); type: functional
[9] = tested on: RKO; assay: Induction of apoptosis in human RKO cells assessed as early apoptotic cells at 0.05 uM incubated for 24 hrs by propidium iodide and Annexin V/FITC staining based flow cytometry assay (reference value: 0.16%); type: functional
[10] = tested on: RKO; assay: Induction of apoptosis in human RKO cells assessed as early apoptotic cells at 0.1 uM incubated for 24 hrs by propidium iodide and Annexin V/FITC staining based flow cytometry assay (reference value: 0.16%); type: functional
[11] = tested on: RKO; assay: Inhibition of colony formation in human RKO cells incubated for 7 days by crystal violet staining based assay; type: functional, cell-based; details: dose 10-90 nM, time 7.0 day
[12] = molecular target: Tubulin; assay: (§1) Inhibition of tubulin polymerization (unknown origin) measured every minute; type: protein-complex assay, Homo sapiens
[13] = molecular target: T1, Tubulin (Homo sapiens) (UniProt P68371+Q9H4B7+P0DPH7+P68366+Q13509+Q71U36+P04350+Q3ZCM7+P07437+P68363+Q9BQE3+Q6PEY2+Q13885+Q9BVA1+Q9BUF5); assay: as §1; type: protein-complex assay
[14] = tested on: MGC-803; assay: Induction of morphological changes in human MGC-803 cells assessed as formation of apoptotic bodies at 0.05 to 0.2 uM incubated for 24 hrs by Giemsa staining based micrscopic analysis; type: functional, cell-based; details: dose 0.05-0.2 µM
[15] = tested on: MGC-803; assay: Induction of apoptosis in human MGC-803 cells assessed as late apoptotic cells at 0.05 uM incubated for 24 hrs by propidium iodide and Annexin V/FITC staining based flow cytometry assay (reference value: 4.10%); type: functional
[16] = tested on: RKO; assay: Induction of morphological changes in human RKO cells assessed as cell shrinkage at 0.05 to 0.2 uM incubated for 24 hrs by Giemsa staining based micrscopic analysis; type: functional; details: dose 0.05-0.2 µM
[17] = tested on: RKO; assay: Induction of apoptosis in human RKO cells assessed as late apoptotic cells at 0.1 uM incubated for 24 hrs by propidium iodide and Annexin V/FITC staining based flow cytometry assay (reference value: 0.50%); type: functional
[18] = tested on: SGC-7901; assay: Antiproliferative activity against human SGC-7901 cells assessed as reduction in cell viability incubated for 72 hrs by MTT assay; type: functional, cell-based; details: SGC-7901, 72 h
[19] = tested on: RKO; assay: Antiproliferative activity against human RKO cells assessed as reduction in cell viability incubated for 24 hrs by BrdU staining based fluorescence microscopic analysis; type: functional; details: dose 10-90 nM
[20] = tested on: MGC-803; assay: Induction of apoptosis in human MGC-803 cells assessed as early apoptotic cells at 0.1 uM incubated for 24 hrs by propidium iodide and Annexin V/FITC staining based flow cytometry assay (reference value: 1.85%); type: functional
[21] = tested on: HGC-27; assay: Antiproliferative activity against human HGC-27 cells assessed as reduction in cell viability incubated for 72 hrs by MTT assay; type: functional, cell-based; details: HGC-27, 72 h
[22] = molecular target: T1, Tubulin (Homo sapiens); assay: Induction of microtubule disruption in human MGC-803 cells assessed as atrophied nucleus at 50 to 200 nM incubated for 24 hrs by laser confocal microscopic analysis; type: cell-based; details: dose 50-200 nM
[23] = tested on: MGC-803; assay: Inhibition of cell […] in human MGC-803 cells incubated for 24 hrs by scratch wound healing assay; type: functional, cell-based; details: dose 12.5-50 nM
[24] = Induction of cell cycle arrest in human RKO cells assessed as accumulation of cells at G2/M phase at 0.05 uM incubated for 24 hrs by propidium iodide staining based flow cytometry analysis; type: functional
[25] = tested on: MGC-803; assay: Induction of apoptosis in human MGC-803 cells assessed as late apoptotic cells at 0.1 uM incubated for 24 hrs by propidium iodide and Annexin V/FITC staining based flow cytometry assay (reference value: 4.10%); type: functional
[26] = tested on: MGC-803; assay: Induction of cell cycle arrest in human MGC-803 cells assessed as accumulation of cells at G2/M phase at 0.05 to 0.2 uM incubated for 24 hrs by propidium iodide staining based flow cytometry analysis; type: functional; details: dose 0.05-0.2 µM
[27] = tested on: MGC-803; assay: Antiproliferative activity against human MGC-803 cells assessed as reduction in cell viability incubated for 24 hrs by BrdU staining based fluorescence microscopic analysis; type: functional; details: dose 10-90 nM
[28] = tested on: RKO; assay: Antiproliferative activity against human RKO cells assessed as reduction in cell viability incubated for 72 hrs by MTT assay; type: functional, cell-based
[29] = tested on: GES1; assay: Antiproliferative activity against human GES1 cells assessed as reduction in cell viability incubated for 72 hrs by MTT assay; type: functional, cell-based; details: GES1, 72 h
[30] = tested on: MGC-803; assay: Induction of apoptosis in human MGC-803 cells assessed as late apoptotic cells at 0.2 uM incubated for 24 hrs by propidium iodide and Annexin V/FITC staining based flow cytometry assay (reference value: 4.10%); type: functional
[31] = molecular target: T1, Tubulin (Homo sapiens); assay: Induction of microtubule disruption in human RKO cells assessed as atrophied nucleus at 50 to 200 nM incubated for 24 hrs by laser confocal microscopic analysis; type: cell-based; details: dose 50-200 nM
[32] = tested on: LoVo; assay: Antiproliferative activity against human LoVo cells assessed as reduction in cell viability incubated for 72 hrs by MTT assay; type: functional, cell-based

- IC50 [12]: 5.69 µM
- inhibition [13]: Dose-Dependent Effect
- IC50 [18]: 0.09 µM
- Activity [22]: Active
- Activity [31]: Active
- IC50 [32]: 0.23 µM
Structure (SMILES): CCCN1c2ccccc2C(=O)N2CCc3c([nH]c4ccccc34)C21 (configuration not stated)
- inhibition [1]: Active
- Activity [2]: 37.67%
- Activity [3]: Active
- Activity [4]: 14.35%
- inhibition [5]: Dose-Dependent Effect
- inhibition [6]: Active
- inhibition [7]: Dose-Dependent Effect
- Activity [8]: 3.03%
- Activity [9]: 9.67%
- Activity [10]: 14.52%
- inhibition [11]: Dose-Dependent Effect
- Activity [14]: Active
- Activity [15]: 6.84%
- Activity [16]: Active
- Activity [17]: 33.41%
- Activity [19]: Dose-Dependent Effect
- Activity [20]: 6.76%
- IC50 [21]: 0.81 µM
- inhibition [23]: Dose-Dependent Effect
- Activity [24]: 40.55%
- Activity [25]: 24.63%
- Activity [26]: Active
- Activity [27]: Dose-Dependent Effect
- IC50 [28]: 0.2 µM
- IC50 [29]: 0.13 µM
- Activity [30]: 25.1%
